The assay has as its target T1, Human ENaC δ, β and γ subunit (Homo sapiens, UniProt P51168+P51170+P51172).
T1 construct: expressed in transfected cells; host or cells: Xenopus laevis (African clawed frog) oocytes injected with cRNA
T1 sequence (P51172 1-802): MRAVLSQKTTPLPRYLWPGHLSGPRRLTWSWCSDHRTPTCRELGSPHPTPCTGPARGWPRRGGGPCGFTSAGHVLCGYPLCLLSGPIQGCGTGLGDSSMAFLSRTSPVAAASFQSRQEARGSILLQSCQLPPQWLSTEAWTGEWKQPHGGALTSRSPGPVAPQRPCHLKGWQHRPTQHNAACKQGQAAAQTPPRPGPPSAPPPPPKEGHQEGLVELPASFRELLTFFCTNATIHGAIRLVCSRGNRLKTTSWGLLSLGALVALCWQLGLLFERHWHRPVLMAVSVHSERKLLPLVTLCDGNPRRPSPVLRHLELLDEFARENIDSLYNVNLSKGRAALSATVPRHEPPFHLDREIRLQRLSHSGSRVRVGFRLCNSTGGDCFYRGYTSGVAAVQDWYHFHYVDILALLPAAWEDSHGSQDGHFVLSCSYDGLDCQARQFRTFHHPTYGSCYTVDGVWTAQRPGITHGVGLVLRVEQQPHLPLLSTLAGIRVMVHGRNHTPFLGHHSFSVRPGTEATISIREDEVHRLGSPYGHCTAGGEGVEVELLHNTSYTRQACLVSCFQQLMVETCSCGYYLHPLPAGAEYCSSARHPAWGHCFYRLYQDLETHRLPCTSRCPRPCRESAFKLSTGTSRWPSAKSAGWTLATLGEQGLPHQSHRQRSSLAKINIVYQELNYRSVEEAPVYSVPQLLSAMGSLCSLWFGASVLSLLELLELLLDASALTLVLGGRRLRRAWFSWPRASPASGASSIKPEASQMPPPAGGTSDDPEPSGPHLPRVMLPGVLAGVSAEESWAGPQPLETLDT
T1 sequence (P51168 1-640): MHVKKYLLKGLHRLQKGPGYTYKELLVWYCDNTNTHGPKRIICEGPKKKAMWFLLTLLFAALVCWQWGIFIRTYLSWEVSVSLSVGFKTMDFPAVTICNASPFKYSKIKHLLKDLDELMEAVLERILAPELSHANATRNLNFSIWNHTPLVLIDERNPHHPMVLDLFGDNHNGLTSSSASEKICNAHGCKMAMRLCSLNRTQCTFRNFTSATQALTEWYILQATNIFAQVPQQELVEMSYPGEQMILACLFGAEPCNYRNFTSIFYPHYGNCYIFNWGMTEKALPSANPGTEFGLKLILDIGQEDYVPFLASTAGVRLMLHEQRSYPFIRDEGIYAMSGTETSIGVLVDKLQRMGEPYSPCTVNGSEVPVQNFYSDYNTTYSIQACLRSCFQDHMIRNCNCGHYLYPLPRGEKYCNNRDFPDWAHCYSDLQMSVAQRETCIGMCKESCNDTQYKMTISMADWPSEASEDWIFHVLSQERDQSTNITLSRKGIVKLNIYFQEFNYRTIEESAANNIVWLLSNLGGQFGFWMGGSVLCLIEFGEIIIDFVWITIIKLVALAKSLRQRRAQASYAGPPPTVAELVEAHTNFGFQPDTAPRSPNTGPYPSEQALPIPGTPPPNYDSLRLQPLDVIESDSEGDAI
T1 sequence (P51170 1-649): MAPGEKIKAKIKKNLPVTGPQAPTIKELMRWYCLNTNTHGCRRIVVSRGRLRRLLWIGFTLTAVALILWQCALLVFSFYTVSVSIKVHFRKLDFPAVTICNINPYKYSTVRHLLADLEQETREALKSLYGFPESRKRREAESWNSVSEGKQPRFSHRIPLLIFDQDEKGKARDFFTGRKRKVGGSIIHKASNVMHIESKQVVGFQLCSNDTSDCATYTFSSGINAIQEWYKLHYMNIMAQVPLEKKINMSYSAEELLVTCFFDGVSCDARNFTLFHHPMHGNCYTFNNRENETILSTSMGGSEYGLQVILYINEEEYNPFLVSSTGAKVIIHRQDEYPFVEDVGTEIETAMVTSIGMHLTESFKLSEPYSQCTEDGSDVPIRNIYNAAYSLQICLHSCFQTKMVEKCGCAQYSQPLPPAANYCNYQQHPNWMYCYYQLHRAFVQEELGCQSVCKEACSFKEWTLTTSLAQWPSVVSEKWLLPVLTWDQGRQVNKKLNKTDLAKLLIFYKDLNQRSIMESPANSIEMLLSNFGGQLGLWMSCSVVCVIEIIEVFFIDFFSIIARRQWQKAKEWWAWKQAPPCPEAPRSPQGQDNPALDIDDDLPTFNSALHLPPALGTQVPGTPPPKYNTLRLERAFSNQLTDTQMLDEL
Kind of assay: Measurement of ENaC activation potency (MED) in ENaC-expressing oocyte, Two Electrode Voltage Clamp. The format is cell-based. Particulars: minimum effective dose at which current started to increase; ENaC-expressing African clawed frog oocyte; smaller MED = higher ENaC activation potency. Here is the method: ENaC activation current value, namely, the inward current in ENaC-expressing oocyte was measured as follows.
According to the method described in Motonao Nakamura, Takao Shimizu: Experiment of African clawed frog oocyte, Experimental Medicine Vol. 11, No. 3, 224-232 (1993), oocyte was collected from African clawed frog, […], and the current value was measured by a Two Electrode Voltage Clamp technique. In the present invention, ND96 (96 mM NaCl, 2 mM KCl, 1 mM MgCl2, 5 mM Hepes, 1.8 mM CaCl2, pH 7.6) was used instead of MBS buffer in the above-mentioned document. Injector NANOLITER 2000 manufactured by World Precision Instruments was used for microinjection, OpusXpress 6000A manufactured by Molecular Devices was used for current value measurement by a Two Electrode Voltage Clamp technique, and Clampfit 10.2 software manufactured by Molecular Devices was used for data analysis.
Human ENaC δ, β and γ subunit genes shown by SEQ ID NOs: 1, 2 and 3, respectively, in the Sequence Listing were each cloned into a plasmid vector, and used as a template DNA for cRNA synthesis. cRNA was synthesized using MEGAscript kit manufactured by Ambion and according to the method of the manual of the manufacturer.
A mixture of the same amount of ENaC […] cRNA (0.4 to 0.8 μg/μL), and β and γ subunits cRNA (0.4 μg/μL) was injected into the oocyte of African clawed frog at […] per oocyte, and the oocyte was cultured for 16 hr-72 hr. Thereafter, the oocyte was set on a measuring apparatus OpusXpress 6000A, the electrodes were inserted into the oocyte, the voltage was clamped at a level lower by −30 mV than the resting membrane potential by a Two Electrode Voltage Clamp technique, and the current value was measured.
To measure the ENaC activation potency, oocyte was stimulated with each test compound, and the minimum effective dose (hereinafter to be abbreviated as MED) of the compound at the time point when the electric current started to increase was measured. In this case, whichever smaller value of the minimum effective dose of the stimulation compound that increased the current value by not less than 10%, and the minimum effective concentration of the compound that increased, by not less than 25%, the electric current increase value due to the stimulation by 5 μM capsazepine (CAS NO.: 138977-28-3), as compared to the current value before addition of the compound and without stimulation, was taken as MED. A smaller MED means higher ENaC activation potency.
Each test compound was directly dissolved in ND96, or first dissolved in dimethyl sulfoxide (DMSO) to 100 mM, and then prepared by diluting the solution with ND96 to a concentration used for the evaluation. The concentration of the test compound in ND96 was prepared to various concentrations within the range of 0.1 nM to 300 μm.
ND96 as a perfusion fluid was flown at a rate of 0.5 mL/min through the measuring apparatus OpusXpress 6000A on which ENaC-expressing oocyte was set, the perfusion fluid was temporarily stopped every 3 minutes to add a test compound solution (0.25 mL) dissolved in ND96 at a rate of 0.5 mL/min. In this way, the test compound was contacted with ENaC-expressing oocyte, and whether ENaC is activated by the compound was examined by measuring the current value. After addition of the test compound, feeding of the perfusion fluid was resumed to wash away the compound to be ready for the next addition of the compound.
The compound was added successively from a low concentration to a high concentration to stimulate ENaC-expressing oocyte. The concentrations actually added was, for example, 1 nM, 3 nM, 10 nM, 30 nM, 100 nM, 300 nM; 1 μM, 3 μM, 10 μm, 30 μm, 100 μm, 300 μm; 1.2 μM, 6 μM, 30 μm, 150 μm of one test compound. The compound was added from low concentrations to high concentrations at 3 min intervals. […]
Take `CN(Cc1ccc(O)c(O)c1)C(=S)NCCc1ccccc1` [Example 42, 1-(3,4-dihydroxybenzyl)-1-methyl-3-(2-phenylethyl)thiourea]: the MED worked out at 1 µM.

`Oc1ccc(CNC(=S)NCCc2ccccc2)cc1` [Example 43]: the MED was 1 µM.

For the compound `Oc1cccc(CNC(=S)NCCc2ccccc2)c1` [Example 44], the MED worked out at 1 µM.

As to `Oc1ccc(CNC(=S)NCc2ccccc2)cc1O` [Example 45], the MED was found to be 3 µM. With `Oc1ccc(CNC(=S)Nc2ccccc2)cc1O` [Example 46], the MED came to 3 µM. For `Oc1ccc(NC(=S)NCCc2ccccc2)cc1O` [Example 47, 1-(3,4-dihydroxyphenyl)-3-(2-phenylethyl)thiourea], the MED was 5 µM. In turn, `CC(C)CN(Cc1ccc(O)c(O)c1)C(=S)NCCc1ccccc1` [Example 48] had an MED of 1 µM. The value for `O=C1C(c2ccccc2)NC(=S)N1CCc1ccccc1` (stereo not shown) [Example 49] was 30 µM; that for `OC[C@H](NC(=S)NCCc1ccccc1)c1ccccc1` [Example 50] was 3 µM; that for `OC[C@@H](Cc1ccccc1)NC(=S)NCc1ccccc1` [Example 52] was 1 µM. `NC(=O)CNC(=S)NCc1ccccc1` [Example 53] displayed an MED of 30 µM.

Consider `OC(CNC(=S)NCc1ccccc1)c1ccccc1` (stereo not shown) [Example 54], for which the MED came out at 1 µM.

The compound `S=C(NCCc1ccccc1)N1Cc2ccccc2C1` [Example 55] registered an MED of 30 µM. As for `COC(=O)c1ccc(CNC(=S)NCCc2ccccc2)cc1` [Example 56], the MED was determined as 10 µM.

`OC[C@H](Cc1ccccc1)NC(=S)NCc1ccccc1` [Example 57] returned an MED of 1 µM. Consider `S=C(NCc1ccccc1)NCC(c1ccccc1)c1ccccc1` [Example 59], for which the MED came to 10 µM. With `COc1cccc(CCNC(=S)NCc2ccccc2)c1` [Example 60], the MED came to 10 µM. In turn, `Oc1ccccc1CNC(=S)NCCc1ccccc1` [Example 61] gave an MED of 30 µM. Compound `Oc1ccccc1CCNC(=S)NCc1ccccc1` [Example 62] gave an MED of 1.1 µM. The value for `Oc1cccc(CCNC(=S)NCc2ccccc2)c1` [Example 63] was 3.3 µM; that for `O=[N+]([O-])c1ccc(CNC(=S)NCCc2ccccc2)cc1` [Example 64] was 30 µM; that for `N#Cc1ccc(CNC(=S)NCCc2ccccc2)cc1` [Example 65] was 3.3 µM. On to `CN(CCc1ccccc1)C(=S)NCc1ccccc1` [Example 66], for which the MED fell in the range of 3 to 10 µM. In the case of `COc1cc(CNC(=S)NCCc2ccccc2)cc(OC)c1` [Example 67], the MED was 10 µM. For `Oc1cc(O)cc(CNC(=S)NCCc2ccccc2)c1` [Example 68], the MED amounted to 3 µM. As to `ON(Cc1ccccc1)C(=S)NCCc1ccccc1` [Example 69], the MED stood at 1 µM. Compound `S=C(NCCC1CCCCC1)NCc1ccccc1` [Example 70] displayed an MED of 10 µM. Regarding `O[C@@H](CNC(=S)NCc1ccccc1)c1ccccc1` [Example 71], the MED amounted to 1 µM. In the case of `O[C@H](CNC(=S)NCc1ccccc1)c1ccccc1` [Example 72] it was 1 µM; in that of `S=C(NCCc1ccccc1Cl)NCc1ccccc1` [Example 73], 3 to 10 µM; in that of `S=C(NCCc1ccccc1Br)NCc1ccccc1` [Example 74], 3 to 10 µM. As to `COC[C@@H](NC(=S)NCCc1ccccc1)c1ccccc1` [Example 75], the MED was 1 µM. Compound `S=C(NCCc1ccccc1)N[C@H](COCc1ccccc1)c1ccccc1` [Example 76] registered an MED of 10 µM.

Take `COC(CNC(=S)NCc1ccccc1)c1ccccc1` (stereo not shown) [Example 77]: the MED turned out to be 1 µM. For the compound `CC(C)(C)OC(=O)Nc1cccc(CNC(=S)NCCc2ccccc2)c1` [Example 78, tert-butyl 3-{[3-(2-phenylethyl)thioureido]methyl}phenylcarbamate], the MED is 10 µM. In the case of `Nc1cccc(CNC(=S)NCCc2ccccc2)c1` [Example 79, 1-(3-aminobenzyl)-3-(2-phenylethyl)thiourea], the MED was determined as 1 µM. In the case of `S=C(CCCc1ccccc1)NCc1ccccc1` [Example 80, N-benzyl-4-phenylbutanethioamide] it was 10 µM.
